From patent publication US10717716B2, “1,3,4-oxadiazole derivative compounds as histone deacetylase 6 inhibitor, and the pharmaceutical composition comprising the same” (Chong Kun Dang Pharmaceutical Corp., priority 2015, dated 2020)

Target: T1, human recombinant HDAC6 (Homo sapiens, UniProt Q9UBN7)
T1 construct: purchased Calbiochem 382180
T1 sequence (Q9UBN7 1-1215): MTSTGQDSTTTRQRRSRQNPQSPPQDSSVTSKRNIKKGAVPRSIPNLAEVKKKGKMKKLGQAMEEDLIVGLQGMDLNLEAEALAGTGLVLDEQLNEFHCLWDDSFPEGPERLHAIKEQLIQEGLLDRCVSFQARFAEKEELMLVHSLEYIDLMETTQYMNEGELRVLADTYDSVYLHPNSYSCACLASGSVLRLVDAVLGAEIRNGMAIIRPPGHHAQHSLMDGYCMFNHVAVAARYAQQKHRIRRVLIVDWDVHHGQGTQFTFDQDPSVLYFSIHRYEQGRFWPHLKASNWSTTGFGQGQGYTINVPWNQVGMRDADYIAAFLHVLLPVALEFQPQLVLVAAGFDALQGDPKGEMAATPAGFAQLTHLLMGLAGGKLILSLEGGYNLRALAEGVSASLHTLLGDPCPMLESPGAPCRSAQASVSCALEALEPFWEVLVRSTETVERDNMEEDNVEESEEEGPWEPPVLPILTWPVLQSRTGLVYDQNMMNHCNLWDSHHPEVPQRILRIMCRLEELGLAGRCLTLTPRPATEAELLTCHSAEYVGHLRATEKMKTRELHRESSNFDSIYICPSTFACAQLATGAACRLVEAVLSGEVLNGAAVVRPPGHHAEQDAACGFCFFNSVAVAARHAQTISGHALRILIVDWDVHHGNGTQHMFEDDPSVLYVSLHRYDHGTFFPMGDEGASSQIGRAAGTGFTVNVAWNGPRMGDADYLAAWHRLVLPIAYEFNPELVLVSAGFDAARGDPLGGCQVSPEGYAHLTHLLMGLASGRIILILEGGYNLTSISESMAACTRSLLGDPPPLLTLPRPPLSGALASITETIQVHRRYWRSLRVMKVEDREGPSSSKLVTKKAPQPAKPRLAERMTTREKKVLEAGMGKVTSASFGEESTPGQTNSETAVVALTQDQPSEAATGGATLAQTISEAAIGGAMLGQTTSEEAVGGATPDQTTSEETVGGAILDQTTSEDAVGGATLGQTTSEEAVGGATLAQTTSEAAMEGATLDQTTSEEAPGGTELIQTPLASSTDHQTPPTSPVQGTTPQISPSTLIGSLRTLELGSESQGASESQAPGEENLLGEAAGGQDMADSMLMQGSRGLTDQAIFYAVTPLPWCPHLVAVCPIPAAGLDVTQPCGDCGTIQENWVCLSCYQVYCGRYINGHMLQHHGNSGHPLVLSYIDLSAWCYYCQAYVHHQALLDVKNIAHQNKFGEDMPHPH
Experiment: HDAC6 enzyme activity inhibition assay (HDAC Fluorimetric Drug Discovery Kit)
Type: biochemical
Details: for HDAC6 selectivity (fold): HDAC6 over HDAC1; for IC50: human recombinant HDAC6, same protocol as HDAC1, read-out: HDAC6
Outline: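 Human recombinant HDAC1 or HDAC6 (0.3 μg) reacted with 10 μM Fluor de Lys-SIRT1 substrate and 5-fold compound dilutions for 60 min at 30 °C. Developer II added for 30 min, fluorescence read at Ex 360/Em 460; IC50 calculated from the readings.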

| Compound | HDAC6 selectivity (fold) | IC50 [nM] |
| --- | --- | --- |
| CCN1CCN(C(=O)N(Cc2ccc(-c3nnc(C(F)F)o3)cn2)c2cccc(F)c2)CC1 [Compound 21885, N-((5-(5-(Difluoromethyl)-1,3,4-oxadiazol-2-yl)pyridin-2-yl)methyl)-4-ethyl-N-(3-fluorophenyl)piperazine-1-carboxamide] | 555 | 18 |
| CCN1CCN(C(=O)N(Cc2ccc(-c3nnc(C(F)F)o3)cc2)c2ccc(F)cc2)CC1 [Compound 21886, N-(4-(5-(Difluoromethyl)-1,3,4-oxadiazol-2-yl)benzyl)-4-ethyl-N-(4-fluorophenyl)piperazine-1-carboxamide] | 218 | 46 |
| CCN1CCN(C(=O)N(Cc2ccc(-c3nnc(C(F)F)o3)cc2F)c2ccc(F)cc2)CC1 [Compound 21887, N-(4-(5-(Difluoromethyl)-1,3,4-oxadiazol-2-yl)-2-fluorobenzyl)-4-ethyl-N-(4-fluorophenyl)piperazine-1-carboxamide] | 218 | 46 |
| CCN1CCN(C(=O)N(Cc2ccc(-c3nnc(C(F)F)o3)cn2)c2ccc(F)cc2)CC1 [Compound 21888, N-((5-(5-(Difluoromethyl)-1,3,4-oxadiazol-2-yl)pyridin-2-yl)methyl)-4-ethyl-N-(4-fluorophenyl)piperazine-1-carboxamide] | 388 | 26 |
| CCN1CCN(C(=O)N(Cc2ccc(-c3nnc(C(F)F)o3)cc2)c2cccc(OC)c2)CC1 [Compound 21889, N-(4-(5-(Difluoromethyl)-1,3,4-oxadiazol-2-yl)benzyl)-4-ethyl-N-(3-methoxyphenyl)piperazine-1-carboxamide] | 103 | 98 |
| CCN1CCN(C(=O)N(Cc2ccc(-c3nnc(C(F)F)o3)cc2F)c2cccc(OC)c2)CC1 [Compound 21890, N-(4-(5-(Difluoromethyl)-1,3,4-oxadiazol-2-yl)-2-fluorobenzyl)-4-ethyl-N-(3-methoxyphenyl)piperazine-1-carboxamide] | 185 | 54 |
| CCN1CCN(C(=O)N(Cc2ccc(-c3nnc(C(F)F)o3)cn2)c2cccc(OC)c2)CC1 [Compound 21891, N-((5-(5-(Difluoromethyl)-1,3,4-oxadiazol-2-yl)pyridin-2-yl)methyl)-4-ethyl-N-(3-methoxyphenyl)piperazine-1-carboxamide] | 174 | 57 |
| O=C(N1CCOCC1)N(Cc1ccc(-c2nnc(C(F)F)o2)cc1F)C12CC3CC(CC(C3)C1)C2 [Compound 21910, N-((3s,5s,7s)-adamantan-1-yl)-N-(4-(5-(difluoromethyl)-1,3,4-oxadiazol-2-yl)-2-fluorobenzyl)morpholine-4-carboxamide] | 21 | 470 |

Further lines, results first:

| HDAC6 selectivity (fold) | IC50 [nM] | Compound |
| --- | --- | --- |
| 42 | 236 | CC(C)(C)CN1CCN(Cc2ccc(N(Cc3ccc(-c4nnc(C(F)F)o4)cc3F)C(=O)N3CCS(=O)(=O)CC3)cc2)CC1 [Compound 21895, N-(4-(5-(difluoromethyl)-1,3,4-oxadiazol-2-yl)-2-fluorobenzyl)-N-(4-((4-neopentylpiperazin-1-yl)methyl)phenyl)thiomorpholine-4-carboxamide 1,1-dioxide] |
| 53 | 190 | O=C(N1CCS(=O)(=O)CC1)N(Cc1ccc(-c2nnc(C(F)F)o2)cc1F)c1ccc(CN2CCN(Cc3ccccc3)CC2)cc1 [Compound 21900, N-(4-((4-benzylpiperazin-1-yl)methyl)phenyl)-N-(4-(5-(difluoromethyl)-1,3,4-oxadiazol-2-yl)-2-fluorobenzyl)thiomorpholine-4-carboxamide 1,1-dioxide] |
| 29 | 349 | CC(C)(F)CN1CCN(Cc2ccc(N(Cc3ccc(-c4nnc(C(F)F)o4)cc3F)C(=O)N3CCS(=O)(=O)CC3)cc2)CC1 [Compound 21901, N-(4-(5-(difluoromethyl)-1,3,4-oxadiazol-2-yl)-2-fluorobenzyl)-N-(4-((4-(2-fluoro-2-methylpropyl)piperazin-1-yl)methyl)phenyl)thiomorpholine-4-carboxamide 1,1-dioxide] |
| 25 | 398 | O=C(N1CCS(=O)(=O)CC1)N(Cc1ccc(-c2nnc(C(F)F)o2)cc1F)c1ccc(CN2CCN(CC(F)(F)F)CC2)cc1 [Compound 21902, N-(4-(5-(difluoromethyl)-1,3,4-oxadiazol-2-yl)-2-fluorobenzyl)-N-(4-((4-(2,2,2-trifluoroethyl)piperazin-1-yl)methyl)phenyl)thiomorpholine-4-carboxamide 1,1-dioxide] |
| 63 | 158 | O=C(N1CCS(=O)(=O)CC1)N(Cc1ccc(-c2nnc(C(F)F)o2)cc1F)c1ccc(CN2CC(F)(F)C2)cc1 [Compound 21914, N-(4-((3,3-difluoroazetidin-1-yl)methyl)phenyl)-N-(4-(5-(difluoromethyl)-1,3,4-oxadiazol-2-yl)-2-fluorobenzyl)thiomorpholine-4-carboxamide 1,1-dioxide] |
| 62 | 160 | O=C(N1CCS(=O)(=O)CC1)N(Cc1ccc(-c2nnc(C(F)F)o2)cc1F)c1ccc(CN2CCC(F)(F)C2)cc1 [Compound 21915, N-(4-(5-(difluoromethyl)-1,3,4-oxadiazol-2-yl)-2-fluorobenzyl)-N-(4-((3,3-difluoropyrrolidin-1-yl)methyl)phenyl)thiomorpholine-4-carboxamide 1,1-dioxide] |
| 43 | 232 | O=C(N1CCS(=O)(=O)CC1)N(Cc1ccc(-c2nnc(C(F)F)o2)cc1F)c1ccc(CN2CCC(F)(F)CC2)cc1 [Compound 21916, N-(4-(5-(difluoromethyl)-1,3,4-oxadiazol-2-yl)-2-fluorobenzyl)-N-(4-((4,4-difluoropiperidin-1-yl)methyl)phenyl)thiomorpholine-4-carboxamide 1,1-dioxide] |
| 151 | 66 | CN(C)[C@@H]1CCN(Cc2ccc(N(Cc3ccc(-c4nnc(C(F)F)o4)cc3F)C(=O)N3CCS(=O)(=O)CC3)cc2)C1 [Compound 21917, (R)—N-(4-(5-(difluoromethyl)-1,3,4-oxadiazol-2-yl)-2-fluorobenzyl)-N-(4-((3-(dimethylamino)pyrrolidin-1-yl)methyl)phenyl)thiomorpholine-4-carboxamide 1,1-dioxide] |
| 52 | 193 | O=C(N1CCS(=O)(=O)CC1)N(Cc1ccc(-c2nnc(C(F)F)o2)cc1F)c1ccc(CN2CCOCC2)cc1 [Compound 21918, N-(4-(5-(difluoromethyl)-1,3,4-oxadiazol-2-yl)-2-fluorobenzyl)-N-(4-(morpholinomethyl)phenyl)thiomorpholine-4-carboxamide 1,1-dioxide] |
| 28 | 357 | O=C(N1CCS(=O)(=O)CC1)N(Cc1ccc(-c2nnc(C(F)F)o2)cc1F)c1ccc(CN2CCCCC2)cc1 [Compound 21919, N-(4-(5-(difluoromethyl)-1,3,4-oxadiazol-2-yl)-2-fluorobenzyl)-N-(4-(piperidin-1-ylmethyl)phenyl)thiomorpholine-4-carboxamide 1,1-dioxide] |
| 47 | 213 | O=C(N1CCS(=O)(=O)CC1)N(Cc1ccc(-c2nnc(C(F)F)o2)cc1F)c1ccc(OC2CCN(Cc3ccccc3)CC2)cc1 [Compound 21924, N-(4-((1-benzylpiperidin-4-yl)oxy)phenyl)-N-(4-(5-(difluoromethyl)-1,3,4-oxadiazol-2-yl)-2-fluorobenzyl)thiomorpholine-4-carboxamide 1,1-dioxide] |
| 12 | 829 | C[C@@H]1CN(Cc2ccccc2)C[C@H](C)N1Cc1ccc(N(Cc2ccc(-c3nnc(C(F)F)o3)cc2F)C(=O)N2CCS(=O)(=O)CC2)cc1 [Compound 21925] |
| 28 | 356 | C[C@@H]1CN(Cc2ccc(N(Cc3ccc(-c4nnc(C(F)F)o4)cc3F)C(=O)N3CCS(=O)(=O)CC3)cc2)C[C@H](C)N1Cc1ccccc1 [Compound 21926] |
